A word on the Ki: it is the dissociation constant of the complex between target and ligand, obtained from inhibition or displacement. Low values mean a stronger hold on the target, high ones a looser hold on the target.

T1 sequence (P03951 388-625 limits assumed): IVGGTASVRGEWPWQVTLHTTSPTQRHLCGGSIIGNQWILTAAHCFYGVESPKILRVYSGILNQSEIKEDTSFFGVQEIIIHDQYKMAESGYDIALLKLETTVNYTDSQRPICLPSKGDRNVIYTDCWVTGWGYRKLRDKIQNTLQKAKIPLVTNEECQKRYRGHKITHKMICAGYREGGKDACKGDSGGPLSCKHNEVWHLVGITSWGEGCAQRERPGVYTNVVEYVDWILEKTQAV
T1 sequence (P03951 19-387 partner limits assumed): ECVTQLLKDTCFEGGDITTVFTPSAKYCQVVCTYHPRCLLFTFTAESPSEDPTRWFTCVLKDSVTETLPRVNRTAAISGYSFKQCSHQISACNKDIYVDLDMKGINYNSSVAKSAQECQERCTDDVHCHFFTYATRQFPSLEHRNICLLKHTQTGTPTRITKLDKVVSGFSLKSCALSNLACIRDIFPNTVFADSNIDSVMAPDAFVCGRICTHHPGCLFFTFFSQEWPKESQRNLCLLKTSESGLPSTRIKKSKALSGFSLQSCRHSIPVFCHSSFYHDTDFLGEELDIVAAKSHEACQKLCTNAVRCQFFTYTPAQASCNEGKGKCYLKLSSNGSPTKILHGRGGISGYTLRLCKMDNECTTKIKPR

This test addresses T1, purified human Factor XIa (Homo sapiens, UniProt P03951).
T1 construct: purchased Haematologic Technologies
The experiment in a line: Factor XIa enzyme inhibition assay (chromogenic substrate S-2366), Ki. The settings on record: substrate S-2366, pH 7.4. In kind it is biochemical. Here is the method: The effectiveness of compounds of the present invention as inhibitors of the coagulation Factors XIa, VIIa, IXa, Xa, XIIa, plasma kallikrein, thrombin, chemytrypsin or trypsin can be determined using a relevant purified serine protease, respectively, and an appropriate synthetic substrate. The rate of hydrolysis of the chromogenic or fluorogenic substrate by the relevant serine protease was measured both in the absence and presence of compounds of the present invention. […] A decrease in the rate of absorbance or fluorescence change in the presence of inhibitor is indicative of enzyme inhibition. Such methods are known to one skilled in the art. The results of this assay are expressed as the inhibitory constant, Ki.
Factor XIa determinations were made in 50 mM HEPES buffer at pH 7.4 containing 145 mM NaCl, 5 mM KCl, and 0.1% PEG 8000 (polyethylene glycol; JT Baker or Fisher Scientific). Determinations were made using purified human Factor XIa at a final concentration of […] (Haematologic Technologies) and the synthetic substrate S-2366 (pyroGlu-Pro-Arg-pNA; CHROMOGENIX® or AnaSpec) at a concentration of 0.0002-0.001 M.
Values of Ki were determined by allowing the protease to react with the substrate in the presence of the inhibitor. Reactions were allowed to go for periods of 20-180 minutes (depending on the protease) and the velocities (rate of absorbance or fluorescence change versus time) were measured. The following relationships were used to calculate Ki values: (Vmax*S)/(Km+S) (vo−vs)/vs=I/(Ki*(1+S/Km)) for a competitive inhibitor with one binding site; or vs/vo=A+(B−A)/(1+(IC50/(I)^n)); and Ki=IC50/(1+S/Km) for a competitive inhibitor where: […]
Molecule `O=C(Nc1ccc(OC2CCOCC2)cc1)[C@H](Cc1ccccc1)n1cnc(-c2cc(Cl)ccc2-n2cc(Cl)nn2)cc1=O` [Example 41, (S)-2-(4-(5-chloro-2-(4-chloro-1H-1,2,3-triazol-1-yl)phenyl)-6-oxopyrimidin-1(6H)-yl)-3-phenyl-N-(4-((tetrahydro-2H-pyran-4-yl)oxy)phenyl)propanamide] registered a Ki of 0.117 µM.

Turning to `CCOC(=O)c1ccc(NC(=O)[C@H](Cc2ccccc2)n2cnc(-c3cc(Cl)ccc3-n3cc(Cl)nn3)cc2=O)cc1` [Example 42, ethyl (S)-4-(2-(4-(5-chloro-2-(4-chloro-1H-1,2,3-triazol-1-yl)phenyl)-6-oxopyrimidin-1(6H)-yl)-3-phenylpropanamido)benzoate], the affinity, expressed as Ki, was 0.196 µM.

`N#Cc1ccc(NC(=O)[C@H](Cc2ccccc2)n2cnc(-c3cc(Cl)ccc3-n3cc(Cl)nn3)cc2=O)cn1` [Example 43, (S)-2-(4-(5-chloro-2-(4-chloro-1H-1,2,3-triazol-1-yl)phenyl)-6-oxopyrimidin-1(6H)-yl)-N-(6-cyanopyridin-3-yl)-3-phenylpropanamide] gave a Ki of 0.208 µM.

Molecule `CCn1nc(C)cc1NC(=O)[C@H](Cc1ccccc1)n1cnc(-c2cc(Cl)ccc2-n2cc(Cl)nn2)cc1=O` [Example 44, (S)-2-(4-(5-chloro-2-(4-chloro-1H-1,2,3-triazol-1-yl)phenyl)-6-oxopyrimidin-1(6H)-yl)-N-(1-ethyl-3-methyl-1H-pyrazol-5-yl)-3-phenylpropanamide] came in with a Ki of 0.395 µM.

As to `COC(=O)Cc1ccc(NC(=O)[C@H](Cc2ccccc2)n2cnc(-c3cc(Cl)ccc3-n3cc(Cl)nn3)cc2=O)cc1` [Example 45, methyl (S)-2-(4-(2-(4-(5-chloro-2-(4-chloro-1H-1,2,3-triazol-1-yl)phenyl)-6-oxopyrimidin-1(6H)-yl)-3-phenylpropanamido)phenyl)acetate], the Ki was 0.0882 µM.

In turn, `O=C(Nc1ccc2[nH]cnc2c1)[C@H](Cc1ccccc1)n1cnc(-c2cc(Cl)ccc2-n2cc(Cl)nn2)cc1=O` [Example 46, (S)-N-(1H-benzo[d]imidazol-5-yl)-2-(4-(5-chloro-2-(4-chloro-1H-1,2,3-triazol-1-yl)phenyl)-6-oxopyrimidin-1(6H)-yl)-3-phenylpropanamide] showed a Ki of 0.0083 µM.

As for `O=C(Nc1ccc2[nH]ccc2n1)[C@H](Cc1ccccc1)n1cnc(-c2cc(Cl)ccc2-n2cc(Cl)nn2)cc1=O` [Example 47, (S)-2-(4-(5-chloro-2-(4-chloro-1H-1,2,3-triazol-1-yl)phenyl)-6-oxopyrimidin-1(6H)-yl)-3-phenyl-N-(1H-pyrrolo[3,2-b]pyridin-5-yl)propanamide], the Ki worked out at 0.154 µM.

For `O=C(NCc1nccs1)[C@H](Cc1ccccc1)n1cnc(-c2cc(Cl)ccc2-n2cc(Cl)nn2)cc1=O` [Example 50, (S)-2-(4-(5-chloro-2-(4-chloro-1H-1,2,3-triazol-1-yl)phenyl)-6-oxopyrimidin-1(6H)-yl)-3-phenyl-N-(thiazol-2-ylmethyl)propanamide], the affinity corresponds to a Ki of 6.59 µM.

The molecule `Cc1cnc(CNC(=O)[C@H](Cc2ccccc2)n2cnc(-c3cc(Cl)ccc3-n3cc(Cl)nn3)cc2=O)cn1` [Example 51, (S)-2-(4-(5-chloro-2-(4-chloro-1H-1,2,3-triazol-1-yl)phenyl)-6-oxopyrimidin-1(6H)-yl)-N-((5-methylpyrazin-2-yl)methyl)-3-phenylpropanamide] showed a Ki of 1.48 µM.

Regarding `O=C([C@H](Cc1ccccc1)n1cnc(-c2cc(Cl)ccc2-n2cc(Cl)nn2)cc1=O)N1CCC(c2ccc(Cl)cc2)CC1` [Example 52, (S)-6-(5-chloro-2-(4-chloro-1H-1,2,3-triazol-1-yl)phenyl)-3-(1-(4-(4-chlorophenyl)piperidin-1-yl)-1-oxo-3-phenylpropan-2-yl)pyrimidin-4(3H)-one], affinity was put at a Ki of 4.44 µM.

The molecule `O=C1CN(C(=O)[C@H](Cc2ccccc2)n2cnc(-c3cc(Cl)ccc3-n3cc(Cl)nn3)cc2=O)CCN1` [Example 53, (S)-6-(5-chloro-2-(4-chloro-1H-1,2,3-triazol-1-yl)phenyl)-3-(1-oxo-1-(3-oxopiperazin-1-yl)-3-phenylpropan-2-yl)pyrimidin-4(3H)-one] returned a Ki of 7.62 µM.

The molecule `CN1[C@@H]2CC[C@H]1C[C@@H](NC(=O)[C@H](Cc1ccccc1)n1cnc(-c3cc(Cl)ccc3-n3cc(Cl)nn3)cc1=O)C2` [Example 54, (S)-2-(4-(5-chloro-2-(4-chloro-1H-1,2,3-triazol-1-yl)phenyl)-6-oxopyrimidin-1(6H)-yl)-N-((1R,3r,5S)-8-methyl-8-azabicyclo[3.2.1]octan-3-yl)-3-phenylpropanamide] gave a Ki of 3.99 µM.

The molecule `O=C1CCN(C(=O)[C@H](Cc2ccccc2)n2cnc(-c3cc(Cl)ccc3-n3cc(Cl)nn3)cc2=O)CCN1` [Example 55, (S)-1-(2-(4-(5-chloro-2-(4-chloro-1H-1,2,3-triazol-1-yl)phenyl)-6-oxopyrimidin-1(6H)-yl)-3-phenylpropanoyl)-1,4-diazepan-5-one] yielded a Ki of 4.94 µM.

Take `O=C([C@H](Cc1ccccc1)n1cnc(-c2cc(Cl)ccc2-n2cc(Cl)nn2)cc1=O)N1CCC(CO)CC1` [Example 56, (S)-6-(5-chloro-2-(4-chloro-1H-1,2,3-triazol-1-yl)phenyl)-3-(1-(4-(hydroxymethyl)piperidin-1-yl)-1-oxo-3-phenylpropan-2-yl)pyrimidin-4(3H)-one]: the inhibition constant Ki was determined as 7.37 µM.

For `O=C([C@H](Cc1ccccc1)n1cnc(-c2cc(Cl)ccc2-n2cc(Cl)nn2)cc1=O)N1CCN(c2ccncc2)CC1` [Example 57, (S)-6-(5-chloro-2-(4-chloro-1H-1,2,3-triazol-1-yl)phenyl)-3-(1-oxo-3-phenyl-1-(4-(pyridin-4-yl)piperazin-1-yl)propan-2-yl)pyrimidin-4(3H)-one], affinity was put at a Ki of 4.89 µM.

For `COCCN(C)C(=O)[C@H](Cc1ccccc1)n1cnc(-c2cc(Cl)ccc2-n2cc(Cl)nn2)cc1=O` [Example 58, (S)-2-(4-(5-chloro-2-(4-chloro-1H-1,2,3-triazol-1-yl)phenyl)-6-oxopyrimidin-1(6H)-yl)-N-(2-methoxyethyl)-N-methyl-3-phenylpropanamide], the Ki came to 7.86 µM.

For the molecule `NC(=O)CCNC(=O)[C@H](Cc1ccccc1)n1cnc(-c2cc(Cl)ccc2-n2cc(Cl)nn2)cc1=O` [Example 59, (S)-N-(3-amino-3-oxopropyl)-2-(4-(5-chloro-2-(4-chloro-1H-1,2,3-triazol-1-yl)phenyl)-6-oxopyrimidin-1(6H)-yl)-3-phenylpropanamide], the Ki came out at 6.17 µM.

`CC(=O)N1CCN(C(=O)[C@H](Cc2ccccc2)n2cnc(-c3cc(Cl)ccc3-n3cc(Cl)nn3)cc2=O)CC1` [Example 60, (S)-3-(1-(4-acetylpiperazin-1-yl)-1-oxo-3-phenylpropan-2-yl)-6-(5-chloro-2-(4-chloro-1H-1,2,3-triazol-1-yl)phenyl)pyrimidin-4(3H)-one]: the Ki was determined as 7.37 µM.

`COC(=O)CCNC(=O)[C@H](Cc1ccccc1)n1cnc(-c2cc(Cl)ccc2-n2cc(Cl)nn2)cc1=O` [Example 61, methyl (S)-3-(2-(4-(5-chloro-2-(4-chloro-1H-1,2,3-triazol-1-yl)phenyl)-6-oxopyrimidin-1(6H)-yl)-3-phenylpropanamido)propanoate] had a Ki of 3.65 µM.

`NC(=O)CNC(=O)[C@H](Cc1ccccc1)n1cnc(-c2cc(Cl)ccc2-n2cc(Cl)nn2)cc1=O` [Example 62, (S)-N-(2-amino-2-oxoethyl)-2-(4-(5-chloro-2-(4-chloro-1H-1,2,3-triazol-1-yl)phenyl)-6-oxopyrimidin-1(6H)-yl)-3-phenylpropanamide] had a Ki of 8.98 µM.

`CN(C)C1CCN(C(=O)[C@H](Cc2ccccc2)n2cnc(-c3cc(Cl)ccc3-n3cc(Cl)nn3)cc2=O)CC1` [Example 63, (S)-6-(5-chloro-2-(4-chloro-1H-1,2,3-triazol-1-yl)phenyl)-3-(1-(4-(dimethylamino)piperidin-1-yl)-1-oxo-3-phenylpropan-2-yl)pyrimidin-4(3H)-one] gave a Ki of 7.5 µM.

With `NS(=O)(=O)c1ccc(CNC(=O)[C@H](Cc2ccccc2)n2cnc(-c3cc(Cl)ccc3-n3cc(Cl)nn3)cc2=O)cc1` [Example 64, (S)-2-(4-(5-chloro-2-(4-chloro-1H-1,2,3-triazol-1-yl)phenyl)-6-oxopyrimidin-1(6H)-yl)-3-phenyl-N-(4-sulfamoylbenzyl)propanamide], the Ki was determined as 1.27 µM.

The molecule `CCOC(=O)c1cn2c(n1)CN(C(=O)[C@H](Cc1ccccc1)n1cnc(-c3cc(Cl)ccc3-n3cc(Cl)nn3)cc1=O)CC2` [Example 65, ethyl (S)-7-(2-(4-(5-chloro-2-(4-chloro-1H-1,2,3-triazol-1-yl)phenyl)-6-oxopyrimidin-1(6H)-yl)-3-phenylpropanoyl)-5,6,7,8-tetrahydroimidazo[1,2-a]pyrazine-2-carboxylate] returned a Ki of 4.94 µM.

In turn, `CN1CCC2(CCCN(C(=O)[C@H](Cc3ccccc3)n3cnc(-c4cc(Cl)ccc4-n4cc(Cl)nn4)cc3=O)C2)C1=O` (stereo partly drawn) [Example 66, 7-((S)-2-(4-(5-chloro-2-(4-chloro-1H-1,2,3-triazol-1-yl)phenyl)-6-oxopyrimidin-1(6H)-yl)-3-phenylpropanoyl)-2-methyl-2,7-diazaspiro[4.5]decan-1-one] had a Ki of 12.2 µM.

The values are drawn from patent US10336730B2, “Substituted glycine derived FXIA inhibitors” (BRISTOL-MYERS SQUIBB COMPANY, priority 2015, dated 2019).
